Among the data in ChEMBL document CHEMBL4665772, “Secoiridoids and Iridoids from Morinda asteroscepa” (J Nat Prod, 2020) are Activity values, retold here.

In this experiment the test system is Plasmodium falciparum. Kind of experiment: Antimalarial activity against Plasmodium falciparum 3D7 at 10 uM. It is filed as functional, organism-based.

Activity calls are given as the source filed them. No cut-off for these calls is given here.

In the case of `COC(=O)C1=CO[C@@H](O[C@@H]2O[C@H](CO)[C@@H](O)[C@H](O)[C@H]2O)[C@H]2[C@@H]1[C@H](O)C[C@]2(C)OC(C)=O`, the outcome was inactive.

With `COC(=O)[C@@H](CO)[C@H]1[C@H](O)C[C@](C)(OC(C)=O)[C@H]1C(=O)O`, the outcome was inactive. Consider `COC(=O)[C@@H]1COC(=O)[C@H]2[C@@H]1[C@@H](O)C[C@@]2(C)OC(C)=O`, for which the outcome was inactive.

As to `COC(=O)[C@@H](CO)[C@H]1[C@H](O)C[C@](C)(O)[C@H]1C(=O)O`, the result was inactive.
